Common to all, as to assay type: biochemical
Assay [1] concerns the target T1, human Src enzyme (Homo sapiens, UniProt P12931).
T1 construct: purchased Carna Biosciences, Inc. 08-173
Put plainly: Src enzyme inhibitory activity (time-resolved fluorometry, biotinylated peptide phosphorylation). To be noted: biotinylated peptide phosphorylation, read-out: SRC_IC50. In short, it runs like this: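 Compounds were tested for blocking tyrosine phosphorylation of a biotinylated peptide substrate by recombinant human Src. Phosphorylated product was quantified by time-resolved fluorometry using europium cryptate and XL665 conjugates, and IC50 was calculated against the compound-free control.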

Assay [2] addresses T2, human Yes1 enzyme (Homo sapiens, UniProt P07947).
T2 construct: made in house
Put plainly: Yes1 enzyme inhibitory activity (time-resolved fluorometry, biotinylated peptide phosphorylation). To be noted: biotinylated peptide phosphorylation, read-out: YES_IC50. In short, it runs like this: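 Inhibition was expressed against a compound-free control to give IC50, using TR-FRET read-out (Eu-cryptate anti-pTyr antibody, streptavidin-XL665).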

For assay [3], the target named is T3, human Lck enzyme (Homo sapiens, UniProt P06239).
T3 construct: purchased Carna Biosciences, Inc. 08-170
T3 sequence (P06239 whole entry): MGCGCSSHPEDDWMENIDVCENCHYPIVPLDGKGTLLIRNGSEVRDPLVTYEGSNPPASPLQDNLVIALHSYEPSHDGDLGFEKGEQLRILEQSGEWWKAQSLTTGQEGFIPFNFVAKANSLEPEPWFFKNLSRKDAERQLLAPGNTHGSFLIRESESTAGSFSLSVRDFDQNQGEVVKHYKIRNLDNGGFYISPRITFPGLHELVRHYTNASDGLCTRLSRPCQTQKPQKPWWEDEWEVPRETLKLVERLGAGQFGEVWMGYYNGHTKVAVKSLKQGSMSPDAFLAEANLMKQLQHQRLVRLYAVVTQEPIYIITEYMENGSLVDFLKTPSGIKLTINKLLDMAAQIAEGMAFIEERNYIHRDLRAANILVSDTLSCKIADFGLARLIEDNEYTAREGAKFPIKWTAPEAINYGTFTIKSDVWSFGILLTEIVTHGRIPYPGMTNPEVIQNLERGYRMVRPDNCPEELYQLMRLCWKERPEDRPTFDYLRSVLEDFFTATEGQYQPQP
Nature of the assay: Lck enzyme inhibitory activity (time-resolved fluorometry, biotinylated peptide phosphorylation). The note with it: biotinylated peptide phosphorylation, read-out: LCK_IC50. Summed up: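 Readout pairs a europium cryptate-labelled anti-phosphotyrosine antibody with XL665-streptavidin, measured by time-resolved fluorescence. IC50 derived from percent inhibition against untreated controls.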

T2 sequence (P07947 whole entry): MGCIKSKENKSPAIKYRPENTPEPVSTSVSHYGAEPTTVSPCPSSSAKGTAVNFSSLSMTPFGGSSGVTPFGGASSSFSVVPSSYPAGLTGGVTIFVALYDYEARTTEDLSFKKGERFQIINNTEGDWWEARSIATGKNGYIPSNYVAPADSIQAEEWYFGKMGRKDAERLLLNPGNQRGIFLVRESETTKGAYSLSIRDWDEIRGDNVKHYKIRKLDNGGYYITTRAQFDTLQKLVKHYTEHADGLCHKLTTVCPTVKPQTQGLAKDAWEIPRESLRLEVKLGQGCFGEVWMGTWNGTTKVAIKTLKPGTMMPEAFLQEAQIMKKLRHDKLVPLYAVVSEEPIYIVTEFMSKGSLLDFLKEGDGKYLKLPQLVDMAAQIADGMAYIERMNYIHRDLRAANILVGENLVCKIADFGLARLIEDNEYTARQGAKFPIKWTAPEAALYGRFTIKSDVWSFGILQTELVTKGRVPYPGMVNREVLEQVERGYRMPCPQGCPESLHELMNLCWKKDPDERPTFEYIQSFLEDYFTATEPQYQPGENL
T1 sequence (P12931 whole entry): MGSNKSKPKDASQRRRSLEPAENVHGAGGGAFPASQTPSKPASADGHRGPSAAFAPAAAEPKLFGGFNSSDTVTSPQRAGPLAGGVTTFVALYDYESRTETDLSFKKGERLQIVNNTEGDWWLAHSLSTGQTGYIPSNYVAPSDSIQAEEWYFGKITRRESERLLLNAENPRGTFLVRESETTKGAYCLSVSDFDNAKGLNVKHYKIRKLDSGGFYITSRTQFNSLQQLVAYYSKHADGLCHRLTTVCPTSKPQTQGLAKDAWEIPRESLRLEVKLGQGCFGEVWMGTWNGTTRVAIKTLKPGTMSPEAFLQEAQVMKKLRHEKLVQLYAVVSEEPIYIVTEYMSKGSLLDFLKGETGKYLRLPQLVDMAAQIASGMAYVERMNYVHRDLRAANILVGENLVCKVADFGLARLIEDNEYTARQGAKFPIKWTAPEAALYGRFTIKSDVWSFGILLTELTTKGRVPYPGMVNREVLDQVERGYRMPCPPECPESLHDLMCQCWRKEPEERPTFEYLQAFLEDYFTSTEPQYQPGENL

For the compound `Cc1cc(Oc2c(F)cccc2F)ncc1-n1ncc(C(=O)c2cc3cc(OC(F)F)c(NS(C)(=O)=O)cc3[nH]2)c1N` [Example 4-24-011, N-[2-[5-amino-1-[6-(2,6-difluorophenoxy)-4-methylpyridin-3-yl]pyrazole-4-carbonyl]-5-(difluoromethoxy)-1H-indol-6-yl]methanesulfonamide], the IC50 in assay [1] turned out to be 64 nM; in assay [2], 2.3 nM; in assay [3] it was 13 nM.
In the same order, the values of `Cc1cc(Oc2c(F)cccc2F)ncc1-n1ncc(C(=O)c2cc3cc(OC(F)F)c(NS(=O)(=O)CCCF)cc3[nH]2)c1N` [Example 4-24-012, N-[2-[5-amino-1-[6-(2,6-difluorophenoxy)-4-methylpyridin-3-yl]pyrazole-4-carbonyl]-5-(difluoromethoxy)-1H-indol-6-yl]-3-fluoropropane-1-sulfonamide] are 100 nM, 4 nM and 28 nM.
In the same order, the values of `Cc1cc(Oc2ccccc2F)ccc1-n1ncc(C(=O)c2cc3cc(N4CCOCC4)c(NS(C)(=O)=O)cc3[nH]2)c1N` [Example 4-24-013, N-[2-[5-amino-1-[4-(2-fluorophenoxy)-2-methylphenyl]pyrazole-4-carbonyl]-5-morpholin-4-yl-1H-indol-6-yl]methanesulfonamide] are 40 nM, 1.6 nM and 12 nM.
`Cc1cc(Oc2ccccc2F)ncc1-n1ncc(C(=O)c2cc3cc(N4CCOCC4)c(NS(=O)(=O)C4CC4)cc3[nH]2)c1N` [Example 4-24-014, N-[2-[5-amino-1-[6-(2-fluorophenoxy)-4-methylpyridin-3-yl]pyrazole-4-carbonyl]-5-morpholin-4-yl-1H-indol-6-yl]cyclopropanesulfonamide]: the IC50 in assay [1] turned out to be 360 nM; in assay [2], 6.6 nM; in assay [3], 97 nM.
On the same counts, the results for `Cc1cc(Oc2ccccc2F)ncc1-n1ncc(C(=O)c2cc3cc(N4CCOCC4)c(NS(C)(=O)=O)cc3[nH]2)c1N` [Example 4-24-015, N-[2-[5-amino-1-[6-(2-fluorophenoxy)-4-methylpyridin-3-yl]pyrazole-4-carbonyl]-5-morpholin-4-yl-1H-indol-6-yl]methanesulfonamide] are 77 nM, 1.3 nM and 16 nM.
On the same counts, the results for `Cc1cc(Oc2ccccc2F)ncc1-n1ncc(C(=O)c2cc3cc(N4CCOCC4)c(NS(=O)(=O)CCCF)cc3[nH]2)c1N` [Example 4-24-016, N-[2-[5-amino-1-[6-(2-fluorophenoxy)-4-methylpyridin-3-yl]pyrazole-4-carbonyl]-5-morpholin-4-yl-1H-indol-6-yl]-3-fluoropropane-1-sulfonamide] are 78 nM, 0.87 nM and 32 nM.
As for `Cc1cc(Oc2c(F)cccc2F)ncc1-n1ncc(C(=O)c2cc3cc(N4CCOCC4)c(NS(=O)(=O)C4CC4)cc3[nH]2)c1N` [Example 4-24-017, N-[2-[5-amino-1-[6-(2,6-difluorophenoxy)-4-methylpyridin-3-yl]pyrazole-4-carbonyl]-5-morpholin-4-yl-1H-indol-6-yl]cyclopropanesulfonamide], the results for the IC50 in assay [1], in assay [2] and in assay [3] were 170 nM, 4.1 nM and 65 nM, respectively.
In the case of `Cc1cc(Oc2c(F)cccc2F)ncc1-n1ncc(C(=O)c2cc3cc(N4CCOCC4)c(NS(C)(=O)=O)cc3[nH]2)c1N` [Example 4-24-018, N-[2-[5-amino-1-[6-(2,6-difluorophenoxy)-4-methylpyridin-3-yl]pyrazole-4-carbonyl]-5-morpholin-4-yl-1H-indol-6-yl]methanesulfonamide], the figures for the IC50 in assay [1], in assay [2] and in assay [3] were 91 nM, 2.6 nM and 27 nM, respectively.
In the same order, the values of `Cc1cc(Oc2c(F)cccc2F)ncc1-n1ncc(C(=O)c2cc3cc(N4CCOCC4)c(NS(=O)(=O)CCCF)cc3[nH]2)c1N` [Example 4-24-019, N-[2-[5-amino-1-[6-(2,6-difluorophenoxy)-4-methylpyridin-3-yl]pyrazole-4-carbonyl]-5-morpholin-4-yl-1H-indol-6-yl]-3-fluoropropane-1-sulfonamide] are 140 nM, 3.9 nM and 62 nM.
In the same order, the values of `Cc1cc(Oc2ccccc2F)ccc1-n1ncc(C(=O)c2cc3cc(OCC(F)F)c(NS(=O)(=O)C4CC4)cc3[nH]2)c1N` [Example 4-24-020, N-[2-[5-amino-1-[4-(2-fluorophenoxy)-2-methylphenyl]pyrazole-4-carbonyl]-5-(2,2-difluoroethoxy)-1H-indol-6-yl]cyclopropanesulfonamide] are 54 nM, 3.1 nM and 22 nM.
In the same order, the values of `Cc1cc(Oc2ccccc2F)ccc1-n1ncc(C(=O)c2cc3cc(OCC(F)F)c(NS(C)(=O)=O)cc3[nH]2)c1N` [Example 4-24-021, N-[2-[5-amino-1-[4-(2-fluorophenoxy)-2-methylphenyl]pyrazole-4-carbonyl]-5-(2,2-difluoroethoxy)-1H-indol-6-yl]methanesulfonamide] are 22 nM, 1.7 nM and 9.7 nM.
Regarding `Cc1cc(Oc2ccccc2F)ccc1-n1ncc(C(=O)c2cc3cc(OCC(F)F)c(NS(=O)(=O)CCCF)cc3[nH]2)c1N` [Example 4-24-022, N-[2-[5-amino-1-[4-(2-fluorophenoxy)-2-methylphenyl]pyrazole-4-carbonyl]-5-(2,2-difluoroethoxy)-1H-indol-6-yl]-3-fluoropropane-1-sulfonamide], the IC50 in assay [1] was 30 nM; in assay [2] it was 3.2 nM; in assay [3], 22 nM.
In the same order, the values of `Cc1cc(Oc2ccccc2F)ccc1-n1ncc(C(=O)c2cc3cc(OCC(F)F)c(NS(=O)(=O)CCC(F)F)cc3[nH]2)c1N` [Example 4-24-023, N-[2-[5-amino-1-[4-(2-fluorophenoxy)-2-methylphenyl]pyrazole-4-carbonyl]-5-(2,2-difluoroethoxy)-1H-indol-6-yl]-3,3-difluoropropane-1-sulfonamide] are 24 nM, 2.3 nM and 14 nM.
On the same counts, the results for `Cc1cc(Oc2ccccc2F)cc(F)c1-n1ncc(C(=O)c2cc3cc(OCC(F)F)c(NS(=O)(=O)C4CC4)cc3[nH]2)c1N` [Example 4-24-024, N-[2-[5-amino-1-[2-fluoro-4-(2-fluorophenoxy)-6-methylphenyl]pyrazole-4-carbonyl]-5-(2,2-difluoroethoxy)-1H-indol-6-yl]cyclopropanesulfonamide] are 130 nM, 3.3 nM and 46 nM.
On the same counts, the results for `Cc1cc(Oc2ccccc2F)cc(F)c1-n1ncc(C(=O)c2cc3cc(OCC(F)F)c(NS(C)(=O)=O)cc3[nH]2)c1N` [Example 4-24-025, N-[2-[5-amino-1-[2-fluoro-4-(2-fluorophenoxy)-6-methylphenyl]pyrazole-4-carbonyl]-5-(2,2-difluoroethoxy)-1H-indol-6-yl]methanesulfonamide] are 59 nM, 1.6 nM and 13 nM.
For `Cc1cc(Oc2ccccc2F)cc(F)c1-n1ncc(C(=O)c2cc3cc(OCC(F)F)c(NS(=O)(=O)CCCF)cc3[nH]2)c1N` [Example 4-24-026, N-[2-[5-amino-1-[2-fluoro-4-(2-fluorophenoxy)-6-methylphenyl]pyrazole-4-carbonyl]-5-(2,2-difluoroethoxy)-1H-indol-6-yl]-3-fluoropropane-1-sulfonamide], the IC50 worked out at 50 nM in assay [1], 1.7 nM in assay [2] and 21 nM in assay [3].
In the same order, the values of `Cc1cc(Oc2ccccc2F)ncc1-n1ncc(C(=O)c2cc3cc(OCC(F)F)c(NS(=O)(=O)C4CC4)cc3[nH]2)c1N` [Example 4-24-027, N-[2-[5-amino-1-[6-(2-fluorophenoxy)-4-methylpyridin-3-yl]pyrazole-4-carbonyl]-5-(2,2-difluoroethoxy)-1H-indol-6-yl]cyclopropanesulfonamide] are 140 nM, 3.2 nM and 55 nM.
Regarding `Cc1cc(Oc2ccccc2F)ncc1-n1ncc(C(=O)c2cc3cc(OCC(F)F)c(NS(C)(=O)=O)cc3[nH]2)c1N` [Example 4-24-028, N-[2-[5-amino-1-[6-(2-fluorophenoxy)-4-methylpyridin-3-yl]pyrazole-4-carbonyl]-5-(2,2-difluoroethoxy)-1H-indol-6-yl]methanesulfonamide], the IC50 in assay [1] turned out to be 37 nM; in assay [2], 1.2 nM; in assay [3] it was 14 nM.
On the same counts, the results for `Cc1cc(Oc2ccccc2F)ncc1-n1ncc(C(=O)c2cc3cc(OCC(F)F)c(NS(=O)(=O)CCCF)cc3[nH]2)c1N` [Example 4-24-029, N-[2-[5-amino-1-[6-(2-fluorophenoxy)-4-methylpyridin-3-yl]pyrazole-4-carbonyl]-5-(2,2-difluoroethoxy)-1H-indol-6-yl]-3-fluoropropane-1-sulfonamide] are 54 nM, 1.6 nM and 29 nM.
Regarding `Cc1cc(Oc2c(F)cccc2F)ncc1-n1ncc(C(=O)c2cc3cc(OCC(F)F)c(NS(=O)(=O)C4CC4)cc3[nH]2)c1N` [Example 4-24-030, N-[2-[5-amino-1-[6-(2,6-difluorophenoxy)-4-methylpyridin-3-yl]pyrazole-4-carbonyl]-5-(2,2-difluoroethoxy)-1H-indol-6-yl]cyclopropanesulfonamide], the figures for the IC50 in assay [1], in assay [2] and in assay [3] were 120 nM, 1.7 nM and 23 nM, respectively.

For the origin of these results see patent US10479780B2, “Aminopyrazole derivatives” (Chugai Seiyaku Kabushiki Kaisha, priority 2015, dated 2019).
